From ChEMBL document CHEMBL1201862, “PubChem BioAssay data set” (2004)
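Following 48 hours of exposure in 96-well plates, responses at five concentrations were used to interpolate endpoints linearly. Abbreviation: GI50, concentration required for 50% inhibition of growth.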 The source made the active and inactive calls. Cut-off read from the data, not from the text of the source: active = GI50 up to about 1.1 µM and inactive = higher.

Columns and labels:
Assay in all cases: growth of human tumour cells (NCI), 48 h
DLD-1 = test system: DLD-1
RXF 631 = test system: RXF 631
M19-MEL = test system: M19-MEL
HOP-18 = test system: HOP-18
DMS-273 = test system: DMS-273
XF498 = test system: XF498
DMS-114 = test system: DMS-114
SNB-78 = test system: SNB-78
LXFL 529 = test system: LXFL 529

Measured: GI50

CCCCCCCCCCCCOC(=S)NCCCC
inactive: DLD-1 29.4 µM | RXF 631 20.7 µM | M19-MEL 32.7 µM | HOP-18 28.1 µM | DMS-273 18.3 µM | XF498 16.4 µM | DMS-114 19.7 µM | SNB-78 34.4 µM | LXFL 529 28.1 µM

Nc1nc(-c2ccc(Cl)c([N+](=O)[O-])c2)cs1
inactive: DLD-1 > 100 µM | RXF 631 > 100 µM | M19-MEL > 100 µM | HOP-18 35.4 µM | DMS-273 > 100 µM | XF498 27.5 µM | DMS-114 64.7 µM | SNB-78 52.5 µM | LXFL 529 > 100 µM
